Common to all, as to experiment: CDK enzymology experiment in vitro, capillary mobility shift assay (MSA)
Holding throughout (assay type): biochemical

One assay addresses T1, CDK7 (Homo sapiens, UniProt P50613).
T1 construct: purchased Carna Company
Conditions: read-out: CDK7 (nM) inhibitory IC50. A digest of the protocol: (§1)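 Recombinant kinases tested against peptide substrates in 1× kinase buffer, with compound added as a 100-fold DMSO stock. Top concentration 1, 10 or 30 μM, 3-fold dilutions over 10 points, in duplicate. Substrate conversion read by Caliper EZ Reader, normalised to no-enzyme and no-compound controls, and IC50 fitted with a variable-slope log(inhibitor)–response model.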

The next assay deals with T2, CDK1 (Homo sapiens, UniProt P06493).
T2 construct: purchased Carna Company
T2 sequence (P06493 whole entry): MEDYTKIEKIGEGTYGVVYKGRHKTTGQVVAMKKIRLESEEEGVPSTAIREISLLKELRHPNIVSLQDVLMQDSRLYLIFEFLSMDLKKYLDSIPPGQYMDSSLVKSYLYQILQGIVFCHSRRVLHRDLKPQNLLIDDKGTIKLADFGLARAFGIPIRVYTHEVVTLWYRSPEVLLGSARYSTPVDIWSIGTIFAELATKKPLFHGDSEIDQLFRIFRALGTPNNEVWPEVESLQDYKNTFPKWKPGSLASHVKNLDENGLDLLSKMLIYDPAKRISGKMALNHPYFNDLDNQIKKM
T2 sequence (P14635 whole entry partner): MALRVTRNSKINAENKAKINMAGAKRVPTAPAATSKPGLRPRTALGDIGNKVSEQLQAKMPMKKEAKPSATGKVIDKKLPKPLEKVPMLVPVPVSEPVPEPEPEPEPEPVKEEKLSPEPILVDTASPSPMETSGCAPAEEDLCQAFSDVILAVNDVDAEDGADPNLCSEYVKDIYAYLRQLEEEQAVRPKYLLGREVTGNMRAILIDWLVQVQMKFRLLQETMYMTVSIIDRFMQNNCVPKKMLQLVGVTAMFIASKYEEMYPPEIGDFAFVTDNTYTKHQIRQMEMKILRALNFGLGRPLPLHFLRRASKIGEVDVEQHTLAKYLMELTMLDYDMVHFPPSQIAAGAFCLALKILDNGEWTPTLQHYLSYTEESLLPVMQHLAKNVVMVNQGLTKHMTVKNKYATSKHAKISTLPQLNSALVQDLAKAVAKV
Particulars: read-out: CDK1 (nM) inhibitory IC50. A digest of the protocol: as §1

In another assay the target is T3, CDK9 (Homo sapiens, UniProt P50750).
T3 construct: purchased Carna Company
T3 sequence (P50750 whole entry): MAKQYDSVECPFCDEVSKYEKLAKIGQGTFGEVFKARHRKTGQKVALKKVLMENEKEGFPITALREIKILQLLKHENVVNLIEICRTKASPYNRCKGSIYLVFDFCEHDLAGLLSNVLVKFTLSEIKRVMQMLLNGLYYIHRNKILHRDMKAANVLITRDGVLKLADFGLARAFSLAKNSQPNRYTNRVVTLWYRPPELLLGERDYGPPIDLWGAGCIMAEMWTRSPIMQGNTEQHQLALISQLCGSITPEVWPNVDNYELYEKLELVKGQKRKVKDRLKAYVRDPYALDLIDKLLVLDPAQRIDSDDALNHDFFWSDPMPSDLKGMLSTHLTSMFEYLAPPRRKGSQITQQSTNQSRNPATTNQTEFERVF
T3 sequence (O60563 whole entry partner): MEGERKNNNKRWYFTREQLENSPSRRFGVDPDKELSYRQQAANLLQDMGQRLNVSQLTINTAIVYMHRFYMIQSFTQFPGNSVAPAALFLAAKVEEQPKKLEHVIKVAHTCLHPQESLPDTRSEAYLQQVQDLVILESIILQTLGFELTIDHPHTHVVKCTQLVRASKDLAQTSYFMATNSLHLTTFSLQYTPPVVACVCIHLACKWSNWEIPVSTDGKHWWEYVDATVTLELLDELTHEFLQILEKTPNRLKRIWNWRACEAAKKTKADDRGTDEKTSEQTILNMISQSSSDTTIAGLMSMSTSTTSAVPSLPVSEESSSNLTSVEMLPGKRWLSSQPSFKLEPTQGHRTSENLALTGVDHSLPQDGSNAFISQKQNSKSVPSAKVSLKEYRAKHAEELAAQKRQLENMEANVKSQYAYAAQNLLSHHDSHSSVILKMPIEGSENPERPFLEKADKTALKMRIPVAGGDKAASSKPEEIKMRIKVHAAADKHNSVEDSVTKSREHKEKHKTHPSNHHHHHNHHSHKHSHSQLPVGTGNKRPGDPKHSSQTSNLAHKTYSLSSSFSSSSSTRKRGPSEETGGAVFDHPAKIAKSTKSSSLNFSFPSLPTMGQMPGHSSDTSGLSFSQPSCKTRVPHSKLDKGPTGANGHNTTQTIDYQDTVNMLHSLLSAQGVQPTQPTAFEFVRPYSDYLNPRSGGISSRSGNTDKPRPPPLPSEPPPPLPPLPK
Particulars: read-out: CDK9 (nM) inhibitory IC50. A digest of the protocol: as §1

For another assay, the target named is T4, CDK2 (Homo sapiens, UniProt P24941).
T4 construct: purchased Carna Company
Conditions: read-out: CDK2 (nM) inhibitory IC50. The method in brief:
as §1

A further assay addresses T5, CDK4 (Homo sapiens, UniProt P11802).
T5 construct: purchased Carna Company
Conditions: read-out: CDK4 (nM) inhibitory IC50. The method in brief: as §1

For another assay, the target named is T6, CDK6 (Homo sapiens, UniProt Q00534).
T6 construct: purchased Carna Company
T6 sequence (Q00534 whole entry): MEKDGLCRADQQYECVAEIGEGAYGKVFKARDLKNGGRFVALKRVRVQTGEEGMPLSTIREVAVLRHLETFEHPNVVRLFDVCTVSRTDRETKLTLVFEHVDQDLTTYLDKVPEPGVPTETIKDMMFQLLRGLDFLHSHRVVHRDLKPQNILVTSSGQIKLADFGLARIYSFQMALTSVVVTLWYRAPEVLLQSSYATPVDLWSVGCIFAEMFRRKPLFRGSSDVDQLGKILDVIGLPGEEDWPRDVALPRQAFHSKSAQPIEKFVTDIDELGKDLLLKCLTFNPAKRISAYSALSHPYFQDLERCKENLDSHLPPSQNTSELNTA
T6 sequence (P30281 whole entry partner): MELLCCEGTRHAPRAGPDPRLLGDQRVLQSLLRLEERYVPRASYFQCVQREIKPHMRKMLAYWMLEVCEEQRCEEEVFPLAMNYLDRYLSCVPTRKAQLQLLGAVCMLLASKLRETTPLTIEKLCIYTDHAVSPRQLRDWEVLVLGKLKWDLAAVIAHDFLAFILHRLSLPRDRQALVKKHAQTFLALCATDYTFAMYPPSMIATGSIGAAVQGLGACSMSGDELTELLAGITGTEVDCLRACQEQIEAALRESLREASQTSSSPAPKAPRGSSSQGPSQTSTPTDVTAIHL
Here is the method:
CDK1/CDK2/CDK4/CDK6/CDK7/CDK9 were purchased from Carna Company; Carliper substrate CTD3/substrate 18/substrate 8 were purchased from Gil Biochemical Company; Dinaciclib/Palbociclib were purchased from Selleckchem Company; DMSO was purchased from Sigma Company; 384-well plates were purchased from Corning Company.
• (1) Preparation of 1×Kinase buffer. • (2) Preparation of compound concentration gradient: Test concentration of the test compound was started at 1 μM, 10 μM or 30 μM, 3-fold dilution, 10 concentrations, detected in duplicate. […] Liquid handler Echo 550 was used to transfer 250 nL of 100-fold final concentration of the compound to the target plate 384-well plate. […] The 384-well plate was centrifuged at 1000 rpm for 30 seconds, and shaken to mix uniformly. • (10) The conversion rate was read with Caliper EZ Reader.
Where, conversion %_sample is the readings of conversion rate of the sample; conversion %_min: the average value of negative control wells, representing the readings of conversion rate of wells without enzyme activity; conversion %_max: the average value of positive control wells, representing the readings of conversion rate of wells without compound inhibition.
Taking the log value of the concentration as the X-axis, and the percentage inhibition rate as the Y-axis, the dose-effect curve was fitted using the log(inhibitor) vs. response—Variable slope of the analysis software GraphPad Prism 5 so as to obtain the IC50 value of each compound on the enzyme activity.
Y=Bottom+(Top−Bottom)/(1+10^((Log IC50−X)*HillSlope)). Calculation formula: […]

[1] abbreviates: read-out: CDK6 (nM) inhibitory IC50.

Where two headings read alike, the source gives them in different places.

T5 sequence (P11802 whole entry): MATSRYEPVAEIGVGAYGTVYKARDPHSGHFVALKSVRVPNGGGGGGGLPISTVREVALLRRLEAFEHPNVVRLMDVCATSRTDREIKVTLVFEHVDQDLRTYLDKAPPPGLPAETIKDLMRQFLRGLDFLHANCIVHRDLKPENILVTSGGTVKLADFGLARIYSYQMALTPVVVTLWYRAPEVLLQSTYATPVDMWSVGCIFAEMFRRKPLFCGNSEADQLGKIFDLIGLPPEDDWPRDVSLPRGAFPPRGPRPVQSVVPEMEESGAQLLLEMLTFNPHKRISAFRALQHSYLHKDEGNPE
T5 sequence (P30281 whole entry partner): as the sequence (P30281 whole entry partner) above
T1 sequence (P50613 whole entry): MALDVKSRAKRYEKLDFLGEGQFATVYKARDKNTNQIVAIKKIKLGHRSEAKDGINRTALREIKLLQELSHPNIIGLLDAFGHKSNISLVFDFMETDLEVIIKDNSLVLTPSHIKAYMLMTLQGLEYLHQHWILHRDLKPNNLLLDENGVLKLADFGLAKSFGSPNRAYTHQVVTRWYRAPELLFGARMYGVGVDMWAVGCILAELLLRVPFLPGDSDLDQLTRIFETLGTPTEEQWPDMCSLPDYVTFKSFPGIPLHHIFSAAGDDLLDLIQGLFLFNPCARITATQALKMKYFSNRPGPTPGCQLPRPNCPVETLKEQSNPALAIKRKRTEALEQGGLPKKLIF
T1 sequence (P51946 whole entry partner): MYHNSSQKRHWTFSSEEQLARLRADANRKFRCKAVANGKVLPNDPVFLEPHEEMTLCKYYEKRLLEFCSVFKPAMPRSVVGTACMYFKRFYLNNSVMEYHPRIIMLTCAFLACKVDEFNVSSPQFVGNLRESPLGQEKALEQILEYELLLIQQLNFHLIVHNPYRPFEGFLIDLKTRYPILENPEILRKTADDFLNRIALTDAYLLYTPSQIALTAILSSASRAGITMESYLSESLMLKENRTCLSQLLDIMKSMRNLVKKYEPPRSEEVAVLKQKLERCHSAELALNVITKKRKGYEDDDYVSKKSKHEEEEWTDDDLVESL
T1 sequence (P51948 whole entry partner): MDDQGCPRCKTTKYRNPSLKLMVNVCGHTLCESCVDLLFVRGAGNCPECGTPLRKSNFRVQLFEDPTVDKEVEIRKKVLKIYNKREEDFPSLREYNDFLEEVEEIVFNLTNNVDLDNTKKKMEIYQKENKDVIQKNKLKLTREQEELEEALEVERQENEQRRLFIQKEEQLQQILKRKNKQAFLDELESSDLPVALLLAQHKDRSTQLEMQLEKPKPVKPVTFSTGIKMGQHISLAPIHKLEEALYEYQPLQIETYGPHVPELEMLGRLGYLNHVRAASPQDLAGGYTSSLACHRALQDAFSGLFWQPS

For the compound `O=S(=O)(c1ccc([C@@H]2CCNC2)cc1)N1CCC(Nc2ncc(C(F)(F)F)c(O[C@H]3CCOC3)n2)CC1` (single isomer, unassigned) [Compound 151], the IC50 (in general, the point on the concentration scale where inhibition reaches its midpoint) at CDK7 fell in the range of 10 to 50 nM; at CDK1 it was 10 to 50 nM; on CDK9 it was 100 to 1000 nM; at CDK2, 0.5 to 2.5 nM; on CDK4, 0.5 to 2.5 nM; at CDK6 (setting [1]), 0.5 to 2.5 nM.
As to `CN(C)CCN(c1nc(NC2CCN(S(=O)(=O)c3cnn(C)c3)CC2)ncc1C#N)C1CCCC1` [Compound 148], the IC50 at CDK7 was 100 to 1000 nM; at CDK1 it was 100 to 1000 nM; at CDK9, above 1000 nM; on CDK2, 10 to 50 nM; on CDK4, 100 to 1000 nM; at CDK6 (setting [1]), 100 to 1000 nM.
Take `O=S(=O)(c1ccc(C2CNC2)cc1)N1CCC(Nc2ncc(C(F)(F)F)c(O[C@H]3CCOC3)n2)CC1` [Compound 131]: the IC50 is 2.5 to 10 nM at CDK7; 2.5 to 10 nM on CDK1; 100 to 1000 nM at CDK9; below 0.5 nM on CDK2; 0.5 to 2.5 nM on CDK4; 0.5 to 2.5 nM on CDK6 (setting [1]).
For `O=S(=O)(c1ccc(Br)cc1)N1CCC(Nc2ncc(C(F)(F)F)c(C=C3CCCC3)n2)CC1` [Compound 200], the IC50 at CDK7 lay in the range of 50 to 100 nM; at CDK2, 10 to 50 nM; at CDK4, 100 to 1000 nM.
Regarding `CS(=O)(=O)N1CCC(Nc2ncc(C(F)(F)F)c(NC3CCCC3)n2)CC1` [Example 5, N^4-Cyclopentyl-N^2-(1-(methylsulfonyl)piperidin-4-yl)-5-(trifluoromethyl)pyrimidine-2,4-diamine], the IC50 at CDK7 lay within 10 to 50 nM; on CDK1 it was 100 to 1000 nM; on CDK9, 100 to 1000 nM; on CDK2, 2.5 to 10 nM; at CDK4, 10 to 50 nM; at CDK6 (setting [1]), 10 to 50 nM.
Take `N#Cc1cnc(NC2CCN(S(=O)(=O)c3ccc(C4=CCNCC4)cc3)CC2)nc1NC1CCCC1` [Example 15, 4-(Cyclopentylamino)-2-((1-((4-(1,2,3,6-tetrahydropyridin-4-yl)phenyl)sulfonyl)piperidin-4-yl)amino)pyrimidine-5-carbonitrile]: the IC50 at CDK7 was in the range of 10 to 50 nM; on CDK1, 10 to 50 nM; on CDK9, 100 to 1000 nM; on CDK2, 0.5 to 2.5 nM; at CDK4 it was 0.5 to 2.5 nM; on CDK6 (setting [1]), 0.5 to 2.5 nM.
Turning to `O=S(=O)(c1cnn(CCO)c1)N1CCC(Nc2ncc(C(F)(F)F)c(O[C@H]3CCOC3)n2)CC1` [Example 27], the IC50 on CDK7 was 10 to 50 nM; on CDK1, 2.5 to 10 nM; on CDK9 it was 100 to 1000 nM; at CDK2 it was below 0.5 nM; at CDK4 it was 2.5 to 10 nM; on CDK6 (setting [1]), 10 to 50 nM.
For `Cn1cnc(S(=O)(=O)N2CCC(Nc3ncc(C(F)(F)F)c(NC4CCCC4)n3)CC2)c1` [Compound 35], the IC50 at CDK1 was in the range of 10 to 50 nM; at CDK2, 0.5 to 2.5 nM; on CDK4, 10 to 50 nM; on CDK6 (setting [1]), 50 to 100 nM.
Regarding `Cn1cc(-c2ccc(S(=O)(=O)N3CCC(Nc4ncc(C#N)c(NC5CCCC5)n4)CC3)cc2)cn1` [Compound 49], the IC50 at CDK1 lay within 10 to 50 nM; at CDK2 it was 0.5 to 2.5 nM; on CDK4 it was 2.5 to 10 nM; on CDK6 (setting [1]), 0.5 to 2.5 nM.
For `CS(=O)(=O)N1CCC(Nc2ncc(C#N)c(NC3CCCC3)n2)CC1` [Example 1], the IC50 was in the range of 100 to 1000 nM on CDK1, 10 to 50 nM on CDK2, 10 to 50 nM on CDK4 and 10 to 50 nM at CDK6 (setting [1]).
For the compound `Cn1cc(S(=O)(=O)N2CCC(Nc3ncc(C#N)c(N[C@@H]4CCC[C@H]4O)n3)CC2)cn1` [Compound 45], the IC50 at CDK1 is 10 to 50 nM; at CDK2 it was 2.5 to 10 nM; on CDK4, 10 to 50 nM; on CDK6 (setting [1]), 100 to 1000 nM.
Regarding `CC(C)Nc1nc(NC2CCN(S(C)(=O)=O)CC2)ncc1C#N` [Compound 28], the IC50 on CDK1 was in the range of 100 to 1000 nM; on CDK2 it was 10 to 50 nM; at CDK4, 50 to 100 nM; on CDK6 (setting [1]), 50 to 100 nM.
For `CS(=O)(=O)N1CCC(Nc2cc(NC3CCCC3)c(C#N)cn2)CC1` [Example 2], the IC50 at CDK1 lay within 100 to 1000 nM; at CDK2 it was 10 to 50 nM; at CDK4, 10 to 50 nM; at CDK6 (setting [1]), 10 to 50 nM.
As for `Cn1cc(S(=O)(=O)N2CCC(Nc3ncc(C(F)(F)F)c(NC4CCCC4)n3)CC2)cn1` [Compound 32], the IC50 on CDK1 lay in the range of 10 to 50 nM; at CDK2 it was 0.5 to 2.5 nM; at CDK4, 10 to 50 nM; on CDK6 (setting [1]) it was 10 to 50 nM.
`O=S(=O)(c1ccc(N2CCNCC2)c(F)c1)N1CCC(Nc2ncc(C(F)(F)F)c(O[C@H]3CCOC3)n2)CC1` [Compound 172]: the IC50 on CDK2, on CDK4 and at CDK6 (setting [1]) was 0.5 to 2.5 nM in each case.
As for `Cn1cc(S(=O)(=O)N2CCC(Nc3ncc(C#N)c(N(C4CCCC4)C4CC4)n3)CC2)cn1` [Compound 82], the IC50 at CDK2 is 0.5 to 2.5 nM; on CDK4, 2.5 to 10 nM; on CDK6 (setting [1]), 0.5 to 2.5 nM.
Take `Nc1ccc(S(=O)(=O)N2CCC(Nc3ncc(C(F)(F)F)c(O[C@H]4CCOC4)n3)CC2)cn1` [Compound 123]: the figures for the IC50 on CDK2, on CDK4 and at CDK6 (setting [1]) were below 0.5 nM, 2.5 to 10 nM and 10 to 50 nM, respectively.
`Cn1cc(S(=O)(=O)N2CCC(Nc3ncc([N+](=O)[O-])c(NC4CCCC4)n3)CC2)cn1` [Compound 84]: the IC50 on CDK2 was 10 to 50 nM; on CDK4, 2.5 to 10 nM; at CDK6 (setting [1]) it was 0.5 to 2.5 nM.
With `O=S(=O)(c1ccc(N2CC3CCC(C2)N3)cc1)N1CCC(Nc2ncc(C(F)(F)F)c(O[C@H]3CCOC3)n2)CC1` [Compound 181], the IC50 on CDK2 was below 0.5 nM; at CDK4, 0.5 to 2.5 nM; at CDK6 it was 0.5 to 2.5 nM.
Regarding `Cn1cc(-c2ccc(S(=O)(=O)N3CCC(Nc4ncc(C#N)c(N[C@H]5CC[C@@H](O)C5)n4)CC3)cc2)cn1` (single isomer, unassigned) [Compound 86], the results for the IC50 on CDK2, at CDK4 and on CDK6 (setting [1]) were below 0.5 nM, 0.5 to 2.5 nM and 0.5 to 2.5 nM, respectively.
For the compound `O=S(=O)(c1ccc(N2CCNC(C(F)(F)F)C2)nc1)N1CCC(Nc2ncc(C(F)(F)F)c(O[C@H]3CCOC3)n2)CC1` (some centres unmarked) [Compound 167], the IC50 on CDK2, on CDK4 and at CDK6 (setting [1]) was 0.5 to 2.5 nM each time.
Consider `C[C@H]1CN(c2ccc(S(=O)(=O)N3CCC(Nc4ncc(C(F)(F)F)c(O[C@H]5CCOC5)n4)CC3)cn2)C[C@H](C)N1` [Compound 170], for which the IC50 at CDK2 is below 0.5 nM; at CDK4, 0.5 to 2.5 nM; at CDK6 (setting [1]), 0.5 to 2.5 nM.
In the case of `N#CC1CCN(c2ccc(S(=O)(=O)N3CCC(Nc4ncc(C(F)(F)F)c(O[C@H]5CCOC5)n4)CC3)cc2)CC1` [Compound 143], the IC50 at CDK2 was in the range of 0.5 to 2.5 nM; on CDK4 it was 2.5 to 10 nM; at CDK6 (setting [1]), 10 to 50 nM.
For `C[C@H]1CNCCN1c1ccc(S(=O)(=O)N2CCC(Nc3ncc(C(F)(F)F)c(O[C@H]4CCOC4)n3)CC2)cc1` [Compound 198], the IC50 on CDK2, on CDK4 and at CDK6 (setting [1]) was 0.5 to 2.5 nM in each case.
`Cn1cc(S(=O)(=O)N2CCC(Nc3ncc(C#N)c(N[C@H]4CC[C@@H](O)C4)n3)CC2)cn1` (racemic) [Example 11]: the IC50 on CDK1 lay in the range of 10 to 50 nM; at CDK2 it was 0.5 to 2.5 nM; on CDK4, 10 to 50 nM; at CDK6 (setting [1]), 10 to 50 nM.
As to `O=S(=O)(c1ccc(C2CCCNC2)cc1)N1CCC(Nc2ncc(C(F)(F)F)c(O[C@H]3CCOC3)n2)CC1` (stereo partly drawn) [Example 113, N-(1-((4-(Piperidin-3-yl)phenyl)sulfonyl)piperidin-4-yl)-4-(((S)-tetrahydrofuran-3-yl)oxy)-5-(trifluoromethyl)pyrimidin-2-amine], the IC50 on CDK2, on CDK4 and on CDK6 (setting [1]) was 0.5 to 2.5 nM throughout.
On to `N#Cc1cnc(NC2CCN(S(=O)(=O)c3ccc(C4CCNCC4)cc3)CC2)nc1NC1CCCC1(F)F` (centres unmarked) [Compound 138], for which the IC50 on CDK2, on CDK4 and at CDK6 (setting [1]) was 0.5 to 2.5 nM in each case.
Consider `N#Cc1cnc(NC2CCN(S(=O)(=O)c3ccc(N4CCNC(=O)C4)cc3)CC2)nc1NC1CCCC1` [Compound 103], for which the figures for the IC50 at CDK2, at CDK4 and at CDK6 (setting [1]) were 0.5 to 2.5 nM, 2.5 to 10 nM and 0.5 to 2.5 nM, respectively.

The record behind these values is patent US20250009745A1, “CDK INHIBITOR” (SHANGHAI QILU PHARMACEUTICAL RESEARCH AND DEVELOPMENT …, priority 2021, published 2025).
